Experimental data published in ChEMBL document CHEMBL5154932, “Discovery of 1,6-Naphthyridin-2(1H)-one Derivatives as Novel, Potent, and Selective FGFR4 Inhibitors for the Treatment of Hepatocellular Carcinoma” (J Med Chem, 2022).

Legend:
in vitro [1] = details: mouse, plasma
in vitro [2] = details: human, liver microsomes
in vitro [3] = details: beagle, dog, plasma
in vivo [4] = details: Sprague-Dawley, rat, po, 10 mg/kg
[5] = rat, in vivo, iv, 1 mg/kg
in vivo [6] = details: Sprague-Dawley, rat, po, 10 mg/kg; remark: listed apart in the source
in vitro [7] = details: cynomolgus monkey, plasma
[8] = rat, in vivo, iv, 1 mg/kg; remark: listed apart in the source
[9] = rat, in vivo, iv, 1 mg/kg; remark: listed apart in the source
in vitro [10] = details: mouse, liver microsomes
in vivo [11] = details: Sprague-Dawley, rat, po, 10 mg/kg; remark: listed apart in the source
in vitro [12] = details: rat, liver microsomes
in vivo [13] = details: Sprague-Dawley, rat, po, 10 mg/kg; remark: listed apart in the source
in vitro [14] = details: cynomolgus monkey, liver microsomes
in vitro [15] = details: human, plasma
[16] = rat, in vivo, iv, 1 mg/kg; remark: listed apart in the source
[17] = rat, in vivo, iv, 1 mg/kg; remark: listed apart in the source
in vivo [18] = details: Sprague-Dawley, rat, po, 10 mg/kg; remark: listed apart in the source
in vivo [19] = details: Sprague-Dawley, rat, po, 10 mg/kg; remark: listed apart in the source
[20] = rat, in vivo, iv, 1 mg/kg; remark: listed apart in the source
in vitro [21] = details: beagle, dog, liver microsomes
in vitro [22] = details: rat, plasma
[23] = rat, in vivo, po, 10 mg/kg
[24] = rat, in vivo, po, 10 mg/kg; remark: listed apart in the source
[25] = rat, in vivo, po, 10 mg/kg; remark: listed apart in the source
[26] = rat, in vivo, po, 10 mg/kg; remark: listed apart in the source

| SMILES | half-life (in vitro [1]) [h] | half-life (in vitro [2]) [h] | half-life (in vitro [3]) [h] | t1/2 [5] [min] | half-life (in vitro [7]) [h] | Vd [8] [L/kg] | MRT(t) [9] [h] | half-life (in vitro [10]) [h] | half-life (in vitro [15]) [h] | AUCt [16] [ng·h/mL] | Cmax [17] [ng/mL] | MRT last (in vivo [18]) [h] | bioavailability (in vivo [19]) [%] | CL [20] [mL/min/kg] | half-life (in vitro [22]) [h] | also measured |
| --- | --- | --- | --- | --- | --- | --- | --- | --- | --- | --- | --- | --- | --- | --- | --- | --- |
| CC#CC(=O)Nc1cc(-c2cc3c(cn2)cc(-c2c(Cl)c(OC)cc(OC)c2Cl)c(=O)n3CC)c(OC)cc1N1C[C@H]2C[C@@H]1CO2 | 3.33 | 0.668 | > 4.82 | 2 | > 4.82 | 1.1 | 1.8 | 0.735 | 4.77 | 2609.6 | 1836.2 | 2.4 | 55.4 | 6.7 | > 4.82 | AUC(0-t) (in vivo [4]): 14400 ng·h/mL; Cmax (in vivo [6]): 3650 ng/mL; half-life (in vivo [11]): 2 min; half-life (in vitro [12]): 1.22 h; Tmax (in vivo [13]): 1.4 h; half-life (in vitro [14]): 0.222 h; half-life (in vitro [21]): 0.455 h |
| C=CC(=O)N[C@H]1CCOC[C@H]1Nc1ncc2cc(-c3c(Cl)c(OC)cc(OC)c3Cl)ccc2n1 [FISOGATINIB] | > 4.82 | 0.42 | > 4.82 | 1 | > 4.82 | 1.4 | 1 | 0.333 | > 4.82 | 1023.1 | 1161 | 1.8 | 79.7 | 17 | > 4.82 | t1/2 [23]: 1.2 min; Cmax [24]: 2570.9 ng/mL; Tmax [25]: 0.5 h; AUCt [26]: 8155.2 ng·h/mL |
